The values below come from patent publication US20250339569A1, “CARBONIC ANHYDRASE IX LIGANDS” (priority 2021, published 2025).

Structures are written as SMILES. Like-named read-outs stand apart in the source and are kept apart here. Starred links: 1 amine or outer side, 2 acyl side, 3 side chain; linkers in the order of their positions; H or OH if unused. Positions of bridges follow the written chain, without caps; N, C: chain ends. Non-standard residues stand in square brackets, D forms with d. Residues, ends and D or L forms follow the SMILES beside them. *: point of attachment. Phe(3-NHCO(CH2)3SO2NH2) = N[C@@H](Cc1cccc(NC(=O)CCCS(N)(=O)=O)c1)C(=O)O; X9 = O=C(CC1NC(=O)NC1=O)Nc1cccc(C[C@H](N[*:1])C(=O)[*:2])c1; DOTA = O=C(O)CN1CCN(CC(=O)O)CCN(CC(=O)*)CCN(CC(=O)O)CC1; Phe(3-CF3) = N[C@@H](Cc1cccc(C(F)(F)F)c1)C(=O)O; Phe(4-NH2) = Nc1ccc(C[C@H](N)C(=O)O)cc1; mXylylene = c1cc(C[*:1])cc(C[*:2])c1; Bta = N[C@@H](Cc1csc2ccccc12)C(=O)O; X14 = O=C([C@H]1CCCN([*:1])C1)[*:2]; NH(4-Cl-benzyl) = Clc1ccc(CN*)cc1; X2 = O=C(CN1CCC(N[*:1])CC1)[*:2]; X1 = O=C(CN1CCN([*:1])CC1)[*:2]; X31 = NS(=O)(=O)c1coc(C(=O)*)c1; 4Amb = NCc1ccc(C(=O)O)cc1; Dap = NC[C@H](N)C(=O)O; AEEA = NCCOCCOCC(=O)O; Sar = CNCC(=O)O

The target of assay [1] is T1, CAIX-expressing human HT-29 colorectal cancer cells (Homo sapiens, UniProt Q16790).
T1 construct: CAIX-expressing human HT-29 colorectal cancer cells; host or cells: HT-29 human colorectal cancer cells
As to the kind of experiment: FACS binding assay (IC50 determination, competition with tracer 3BP-2776 or 3BP-4149). The following applies: 4° C., 1 hour, read-out: pIC50 category (activity) (converted). Put shortly: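 HT-29 cells in FACS buffer (PBS, 1% FCS) at 500.000 cells/ml were exposed to compounds competing with a labelled tracer, with biotinylated compounds detected by 1 μg/mL APC-streptavidin for 30 min on ice. APC/Cy5 median fluorescence was read by flow cytometry and IC50 derived by 4PL fit.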

For assay [2], the target named is T2, human carbonic anhydrase IX (hCAIX-Fc) (Homo sapiens, UniProt Q16790).
T2 construct: purchased SinoBliological (Sino Biological) 10107-H02H
The assay can be described thus: Surface plasmon resonance assay with hCAIX-Fc. The assay is classed as binding. As to conditions: 25° C.; for t1/2 category (activity): SPR dissociation half-life, hCAIX-Fc; for Kd: SPR, hCAIX-Fc captured, read-out: pKD category (activity) (converted).

The mark [3] stands for this setting: FACS binding assay, HT-29 cells, competition with tracer 3BP-4149 (3 nM, Cy5-labeled).
The mark [4] stands for this setting: FACS binding assay, HT-29 cells, competition with tracer 3BP-2776 (10 nM, biotin-labeled).
Where [5] appears, read: FACS competition on HT-29 cells, Tracer ID 3BP-2776 (10 nM, biotin-labeled).

Turning to `CC(C)C[C@@H]1NC(=O)[C@H](Cc2cccc(NC(=O)CCCS(N)(=O)=O)c2)NC(=O)[C@H](CC(=O)O)NC(=O)[C@H]2CCCN2C(=O)[C@H](CCC(=O)O)NC(=O)[C@@H](NC(=O)[C@H](Cc2ccc(O)cc2)NC(=O)[C@H]2CCCN(C(=O)CN3CCN(CC(=O)O)CCN(CC(=O)O)CCN(CC(=O)O)CC3)C2)CSCc2cccc(c2)CSC[C@@H](C(N)=O)NC(=O)[C@H](CO)NC(=O)[C@H](Cc2c[nH]c3ccccc23)NC(=O)[C@H]([C@@H](C)O)NC1=O` [3BP-4454] ({DOTA}-[X14]YCE[dP]D[Phe(3-NHCO(CH2)3SO2NH2)]LTWSC-NH2; linker 3-12 via mXylylene), in assay [1] (setting [3]), the IC50 was 10 to 79.4 nM. In addition, in assay [2], the “t1/2 category (activity)” value is listed as “A (t1/2>15.0 minutes)” and the Kd was less than 10 nM.

Take `CC(C)C[C@@H]1NC(=O)[C@H](Cc2cccc(C(F)(F)F)c2)NC(=O)[C@H](CC(=O)O)NC(=O)[C@H]2CCCN2C(=O)[C@H](CCC(=O)O)NC(=O)[C@@H](NC(=O)[C@H](Cc2ccc(O)cc2)NC(=O)[C@@H](NC(=O)CN2CCC(NC(=O)CN3CCN(CC(=O)O)CCN(CC(=O)O)CCN(CC(=O)O)CC3)CC2)C(C)C)CSCc2cccc(c2)CSC[C@@H](C(N)=O)NC(=O)[C@H](CO)NC(=O)[C@H](Cc2c[nH]c3ccccc23)NC(=O)[C@H]([C@@H](C)O)NC1=O` [3BP-4135] ({DOTA}-[X2]VYCE[dP]D[Phe(3-CF3)]LTWSC-NH2; linker 4-13 via mXylylene): the IC50 in assay [1] (setting [4]) was less than 10 nM. In assay [2], the “t1/2 category (activity)” value was “B (t1/2 between 5.1 and 15.0 minutes)”; the Kd is less than 10 nM.

In the case of `CC(C)C[C@@H]1NC(=O)[C@H](Cc2ccc(NC(=O)c3cc(S(N)(=O)=O)co3)cc2)NC(=O)[C@H](CC(=O)O)NC(=O)[C@H]2CCCN2C(=O)[C@H](CCC(=O)O)NC(=O)[C@@H](NC(=O)[C@H](CCC(N)=O)NC(=O)CN2CCN(C(=O)CN3CCN(CC(=O)O)CCN(CC(=O)O)CCN(CC(=O)O)CC3)CC2)CSCc2cccc(c2)CSC[C@@H](C(N)=O)NC(=O)[C@H](CO)NC(=O)[C@H](Cc2c[nH]c3ccccc23)NC(=O)[C@H]([C@@H](C)O)NC1=O` [3BP-4813] ({DOTA}-[X1]QCE[dP]D[Phe(4-NH2)](X31)LTWSC-NH2; linker 3-12 via mXylylene), in assay [1] (setting [4]), the IC50 is 10 to 79.4 nM. Also, in assay [2], the “t1/2 category (activity)” value is “C (t1/2 between 2.1 and 5.0 minutes)”; the Kd is 10 to 79.4 nM.

With `CC(C)C[C@@H]1NC(=O)[C@H](Cc2c[nH]c3ccccc23)NC(=O)[C@H](CCC(=O)NCc2ccc(Cl)cc2)NC(=O)[C@H]2CCCN2C(=O)[C@H](CCC(=O)O)NC(=O)[C@@H](NC(=O)[C@H](Cc2ccc(O)cc2)NC(=O)[C@@H](NC(=O)CN2CCC(NC(=O)CN3CCN(CC(=O)O)CCN(CC(=O)O)CCN(CC(=O)O)CC3)CC2)C(C)C)CSCc2cccc(c2)CSC[C@@H](C(N)=O)NC(=O)[C@H](CO)NC(=O)[C@H](Cc2c[nH]c3ccccc23)NC(=O)[C@H]([C@@H](C)O)NC1=O` [3BP-4334] ({DOTA}-[X2]VYCE[dP]E(NH(4-Cl-benzyl))WLTWSC-NH2; linker 4-13 via mXylylene), the IC50 in assay [1] (setting [3]) is 10 to 79.4 nM. Moreover, in assay [2], the “t1/2 category (activity)” value is listed as “A (t1/2>15.0 minutes)” and the Kd was less than 10 nM.

On to `CC(C)C[C@@H]1NC(=O)[C@H](Cc2cccc(NC(=O)CCCS(N)(=O)=O)c2)NC(=O)[C@H](CC(=O)O)NC(=O)[C@H]2CCCN2C(=O)[C@H](CCC(=O)O)NC(=O)[C@@H]2CSCc3cccc(c3)CSC[C@@H](C(N)=O)NC(=O)[C@H](CNC(=O)C[C@H](NC(=O)CN3CCN(CC(=O)O)CCN(CC(=O)O)CCN(CC(=O)O)CC3)C(=O)N2)NC(=O)[C@H](Cc2c[nH]c3ccccc23)NC(=O)[C@H]([C@@H](C)O)NC1=O` [3BP-4488] ({DOTA}-DCE[dP]D[Phe(3-NHCO(CH2)3SO2NH2)]LTW[Dap]C-NH2; lactam 1-10; linker 2-11 via mXylylene), for which the IC50 in assay [1] (setting [3]) was less than 10 nM. For the same molecule, in assay [2], the “t1/2 category (activity)” value was “A (t1/2>15.0 minutes)” and the Kd is less than 10 nM.

Regarding `CC(C)C[C@@H]1NC(=O)[C@H](Cc2c[nH]c3ccccc23)NC(=O)[C@H](CC(=O)O)NC(=O)[C@H]2CCCN2C(=O)[C@H](CCC(=O)O)NC(=O)[C@@H]2CSCc3cccc(c3)CSC[C@@H](C(N)=O)NC(=O)[C@H](CNC(=O)C[C@H](NC(=O)c3ccc(CNC(=O)CN4CCN(CC(=O)O)CCN(CC(=O)O)CCN(CC(=O)O)CC4)cc3)C(=O)N2)NC(=O)[C@H](Cc2c[nH]c3ccccc23)NC(=O)[C@H]([C@@H](C)O)NC1=O` [3BP-4261] ({DOTA-4Amb}-DCE[dP]DWLTW[Dap]C-NH2; lactam 1-10; linker 2-11 via mXylylene), in assay [1] (setting [4]), the IC50 was less than 10 nM. For the same molecule, in assay [2], the “t1/2 category (activity)” value was “C (t1/2 between 2.1 and 5.0 minutes)”; the Kd is less than 10 nM.

On to `CC(=O)N[C@H](C(=O)N[C@@H](Cc1ccc(O)cc1)C(=O)N[C@H]1CSCc2cccc(c2)CSC[C@@H](C(N)=O)NC(=O)[C@H](CCC(N)=O)NC(=O)[C@H](Cc2c[nH]c3ccccc23)NC(=O)[C@H]([C@@H](C)O)NC(=O)[C@H](CC(C)C)NC(=O)[C@H](Cc2csc3ccccc23)NC(=O)[C@H](CC(=O)O)NC(=O)CN(C)C(=O)[C@H](CCC(=O)O)NC1=O)C(C)C` [3BP-3311] (Ac-VYCE[Sar]D[Bta]LTWQC-NH2; linker 3-12 via mXylylene), for which the IC50 in assay [1] (setting [5]) was less than 10 nM. In assay [2], the “t1/2 category (activity)” value was “C (t1/2 between 2.1 and 5.0 minutes)”; the Kd was less than 10 nM.

Take `CC(C)C[C@@H]1NC(=O)[C@H](Cc2cccc(NC(=O)CC3NC(=O)NC3=O)c2)NC(=O)[C@H](CC(=O)O)NC(=O)[C@H]2CCCN2C(=O)[C@H](CCC(=O)O)NC(=O)[C@@H](NC(=O)[C@H](Cc2ccc(O)cc2)NC(=O)[C@@H](NC(=O)CN2CCC(NC(=O)CN3CCN(CC(=O)O)CCN(CC(=O)O)CCN(CC(=O)O)CC3)CC2)C(C)C)CSCc2cccc(c2)CSC[C@@H](C(N)=O)NC(=O)[C@H](CO)NC(=O)[C@H](Cc2c[nH]c3ccccc23)NC(=O)[C@H]([C@@H](C)O)NC1=O` (stereo partly drawn) [3BP-4371] ({DOTA}-[X2]VYCE[dP]D[X9]LTWSC-NH2; linker 4-13 via mXylylene): the IC50 in assay [1] (setting [3]) was 10 to 79.4 nM. In addition, in assay [2], the “t1/2 category (activity)” value is “C (t1/2 between 2.1 and 5.0 minutes)”; the Kd was less than 10 nM.

`CC(C)C[C@@H]1NC(=O)[C@H](Cc2c[nH]c3ccccc23)NC(=O)[C@H](CC(=O)O)NC(=O)[C@H]2CCCN2C(=O)[C@H](CCC(=O)O)NC(=O)[C@@H](NC(=O)[C@H](Cc2ccc(O)cc2)NC(=O)COCCOCCNC(=O)CN2CCN(CC(=O)O)CCN(CC(=O)O)CCN(CC(=O)O)CC2)CSCc2cccc(c2)CSC[C@@H](C(N)=O)NC(=O)[C@H](CO)NC(=O)[C@H](Cc2c[nH]c3ccccc23)NC(=O)[C@H]([C@@H](C)O)NC1=O` [3BP-3869] ({DOTA-AEEA}-YCE[dP]DWLTWSC-NH2; linker 2-11 via mXylylene): the IC50 in assay [1] (setting [5]) was less than 10 nM. In assay [2], the “t1/2 category (activity)” value was “C (t1/2 between 2.1 and 5.0 minutes)”; the Kd was 10 to 79.4 nM.
